pIC50: −log10 of the molar value.
Molecular target: Beta-2 adrenergic receptor (Homo sapiens, UniProt P07550)
Assay: Displacement of [3H]-CGP-12177 from human beta2-adrenergic receptor

Sequence of Beta-2 adrenergic receptor (P07550 whole entry): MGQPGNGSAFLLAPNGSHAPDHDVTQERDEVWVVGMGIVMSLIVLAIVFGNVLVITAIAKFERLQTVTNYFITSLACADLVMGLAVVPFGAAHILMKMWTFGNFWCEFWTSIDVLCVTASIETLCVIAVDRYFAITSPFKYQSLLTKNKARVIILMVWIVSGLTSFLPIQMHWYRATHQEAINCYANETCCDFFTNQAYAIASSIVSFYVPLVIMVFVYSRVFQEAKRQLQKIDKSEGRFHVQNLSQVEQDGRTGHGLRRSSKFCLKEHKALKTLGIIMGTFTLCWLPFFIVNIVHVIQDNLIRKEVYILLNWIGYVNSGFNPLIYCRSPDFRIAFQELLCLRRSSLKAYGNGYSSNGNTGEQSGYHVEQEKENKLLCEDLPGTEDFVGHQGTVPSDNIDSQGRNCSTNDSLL

COc1cc2c3c(c1OC)-c1ccccc1[C@@H](O)[C@]3(C)NCC2 (relative stereo)
pIC50: 7.70

COc1cc2c(cc1OC)[C@H]([C@H](O)c1ccccc1Cl)NCC2
pIC50: < 5.00

Reference: ChEMBL document CHEMBL4257493, “Discovery of 7-hydroxyaporphines as conformationally restricted ligands for beta-1 and beta-2 adrenergic receptors” (Medchemcomm, 2018)
